Assay results as given in ChEMBL document CHEMBL1135069, “The discovery of acylated beta-amino acids as potent and orally bioavailable VLA-4 antagonists” (Bioorg Med Chem Lett, 2002).

Key:
[1] = biological target: T1, Integrin alpha-4/beta-1 (Homo sapiens, UniProt P05556+P13612); assay: Inhibitory activity against alpha-4 beta-1 receptor (VLA-4) in human RPMI-8866 cells using [125I]-VCAM-Ig ligand; type: cell-based
[2] = in vivo; conditions: Sprague-Dawley, rat, plasma, iv, 1 mg/kg
[3] = Bioavailability in rat (dose 1 mg/kg i.v. and 2 mg/kg p.o.); conditions: in vivo, po, F
[4] = biological target: T1, Integrin alpha-4/beta-1; assay: Inhibition of [125I]VCAM-Ig binding to alpha4-beta1 (VLA-4) of human RPMI-8866 cells; type: cell-based
[5] = organism: Rattus norvegicus; conditions: in vivo, iv, 1 mg/kg

T1 sequence (P05556 whole entry): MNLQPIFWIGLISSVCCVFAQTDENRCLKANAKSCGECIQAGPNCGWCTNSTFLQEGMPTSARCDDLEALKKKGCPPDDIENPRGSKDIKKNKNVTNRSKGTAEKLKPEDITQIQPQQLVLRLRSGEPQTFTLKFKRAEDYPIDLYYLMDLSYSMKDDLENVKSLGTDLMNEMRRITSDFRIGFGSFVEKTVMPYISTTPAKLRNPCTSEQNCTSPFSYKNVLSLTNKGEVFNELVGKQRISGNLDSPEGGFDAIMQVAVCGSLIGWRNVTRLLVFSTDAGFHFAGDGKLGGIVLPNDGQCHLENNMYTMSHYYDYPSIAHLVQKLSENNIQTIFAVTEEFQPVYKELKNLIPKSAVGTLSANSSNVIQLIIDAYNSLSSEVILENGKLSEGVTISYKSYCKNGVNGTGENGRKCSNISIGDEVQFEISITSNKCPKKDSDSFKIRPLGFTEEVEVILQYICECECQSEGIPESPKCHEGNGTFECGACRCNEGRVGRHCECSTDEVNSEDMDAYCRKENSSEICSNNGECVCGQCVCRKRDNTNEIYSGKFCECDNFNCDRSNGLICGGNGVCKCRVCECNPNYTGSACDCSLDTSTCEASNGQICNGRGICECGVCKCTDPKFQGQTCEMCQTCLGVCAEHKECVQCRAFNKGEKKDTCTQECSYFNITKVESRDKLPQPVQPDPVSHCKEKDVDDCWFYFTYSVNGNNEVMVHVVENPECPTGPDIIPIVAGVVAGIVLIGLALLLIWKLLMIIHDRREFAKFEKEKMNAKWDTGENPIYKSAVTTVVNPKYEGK
T1 sequence (P13612 whole entry): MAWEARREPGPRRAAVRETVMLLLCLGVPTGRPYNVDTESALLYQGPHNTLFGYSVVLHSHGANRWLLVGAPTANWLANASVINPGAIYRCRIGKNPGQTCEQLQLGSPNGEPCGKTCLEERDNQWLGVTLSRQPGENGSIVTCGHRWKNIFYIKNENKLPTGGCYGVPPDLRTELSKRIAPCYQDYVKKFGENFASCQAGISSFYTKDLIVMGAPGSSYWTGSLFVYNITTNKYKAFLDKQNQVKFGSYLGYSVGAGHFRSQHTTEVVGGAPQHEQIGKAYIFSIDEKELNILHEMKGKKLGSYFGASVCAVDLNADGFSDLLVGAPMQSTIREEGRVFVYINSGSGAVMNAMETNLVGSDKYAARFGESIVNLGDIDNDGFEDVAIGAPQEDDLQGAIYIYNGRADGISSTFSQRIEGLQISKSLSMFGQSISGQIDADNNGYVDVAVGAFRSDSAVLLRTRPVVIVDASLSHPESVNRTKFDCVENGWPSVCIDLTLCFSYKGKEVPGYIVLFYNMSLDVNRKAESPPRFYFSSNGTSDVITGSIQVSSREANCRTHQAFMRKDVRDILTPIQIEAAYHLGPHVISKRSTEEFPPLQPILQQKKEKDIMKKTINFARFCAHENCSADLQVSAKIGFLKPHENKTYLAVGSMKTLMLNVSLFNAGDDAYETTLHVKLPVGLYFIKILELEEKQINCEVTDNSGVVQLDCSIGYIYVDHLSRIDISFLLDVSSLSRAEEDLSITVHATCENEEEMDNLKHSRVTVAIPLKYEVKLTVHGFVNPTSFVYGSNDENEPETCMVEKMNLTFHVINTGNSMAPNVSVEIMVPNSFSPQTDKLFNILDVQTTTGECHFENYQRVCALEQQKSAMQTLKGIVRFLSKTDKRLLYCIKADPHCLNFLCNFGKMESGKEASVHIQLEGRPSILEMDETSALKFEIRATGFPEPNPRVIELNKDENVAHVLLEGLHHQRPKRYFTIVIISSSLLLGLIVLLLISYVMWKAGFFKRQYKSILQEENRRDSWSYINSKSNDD

O=C(O)C[C@@H](NC(=O)[C@@H]1CCCN1S(=O)(=O)c1cc(Cl)cc(Cl)c1)c1ccc(O)cc1
IC50 [1]: 0.74 nM | clearance [2]: 22 mL/min/kg

O=C(O)C[C@@H](NC(=O)[C@@H]1CCN1S(=O)(=O)c1cc(Cl)cc(Cl)c1)c1ccc(Cl)c(F)c1
IC50 [1]: 11 nM

O=C(O)C[C@@H](NC(=O)[C@@H]1CCN1S(=O)(=O)c1cc(Cl)cc(Cl)c1)c1ccc(OCF)cc1
IC50 [1]: 0.72 nM

O=C(O)CCNC(=O)[C@@H]1CCCN1S(=O)(=O)c1cc(Cl)cc(Cl)c1
IC50 [1]: 1510 nM

O=C(O)C[C@@H](NC(=O)[C@@H]1CCN1S(=O)(=O)c1cc(Cl)cc(Cl)c1)c1ccc(OC2CC2)cc1
IC50 [1]: 0.31 nM | clearance [2]: 70 mL/min/kg

O=C(O)C[C@@H](NC(=O)[C@@H]1CCN1S(=O)(=O)c1cc(Cl)cc(Cl)c1)c1ccc(OC(F)F)cc1
IC50 [1]: 1.3 nM

CS(=O)(=O)c1ccc([C@@H](CC(=O)O)NC(=O)[C@@H]2CCCN2S(=O)(=O)c2cc(Cl)cc(Cl)c2)cc1
IC50 [1]: 0.55 nM | clearance [2]: 92 mL/min/kg

COc1ccc([C@](C)(CC(=O)O)NC(=O)[C@@H]2CCN2S(=O)(=O)c2cc(Cl)cc(Cl)c2)cc1
bioavailability [3]: 19% | IC50 [1]: 26 nM | clearance [2]: 46 mL/min/kg

O=C(O)C[C@@H](NC(=O)[C@@H]1CCN1S(=O)(=O)c1cc(Cl)cc(Cl)c1)c1ccc(Br)cc1
IC50 [1]: 2.1 nM

Cc1ccccc1NC(=O)Nc1ccc(CN[C@@H](CC(C)C)C(=O)N[C@@H](CC(=O)O)c2ccc3c(c2)OCO3)cc1
IC50 [1]: 3 nM

CC(C)[C@H](CC(=O)O)NC(=O)[C@@H]1CCCN1S(=O)(=O)c1cc(Cl)cc(Cl)c1
IC50 [1]: 362 nM

O=C(O)C[C@H](Cc1ccccc1)NC(=O)[C@@H]1CCCN1S(=O)(=O)c1cc(Cl)cc(Cl)c1
IC50 [1]: 22 nM

O=C(O)C[C@@H](NC(=O)[C@@H]1CCCN1S(=O)(=O)c1cc(Cl)cc(Cl)c1)c1ccc(OC2CC2)cc1
IC50 [1]: 0.85 nM | clearance [2]: 26 mL/min/kg

O=C(O)C[C@@H](NC(=O)[C@@H]1CCN1S(=O)(=O)c1cc(Cl)cc(Cl)c1)c1ccc(F)cc1
IC50 [1]: 3.2 nM

O=C(O)[C@H](Cc1ccccc1)NC(=O)[C@@H]1CCCN1S(=O)(=O)c1cc(Cl)cc(Cl)c1
IC50 [1]: 1.4 nM

CCOc1ccc([C@@H](CC(=O)O)NC(=O)[C@@H]2CCCN2S(=O)(=O)c2cc(Cl)cc(Cl)c2)cc1
IC50 [1]: 0.27 nM | clearance [2]: 40 mL/min/kg

O=C(O)C[C@@H](NC(=O)[C@@H]1CCCN1S(=O)(=O)c1cc(Cl)cc(Cl)c1)c1ccc(OC(F)(F)F)cc1
IC50 [1]: 2.6 nM | clearance [2]: 22 mL/min/kg

O=C(O)C[C@@H](NC(=O)[C@@H]1CCN1S(=O)(=O)c1cc(Cl)cc(Cl)c1)c1ccc(Oc2ccccc2)cc1
IC50 [1]: 3.1 nM

COc1ccc([C@@H](CC(=O)O)NC(=O)[C@]2(C)CCN2S(=O)(=O)c2cc(Cl)cc(Cl)c2)cc1
IC50 [1]: 1.5 nM | clearance [2]: 7 mL/min/kg

O=C(O)C[C@H](NC(=O)[C@@H]1CCCN1S(=O)(=O)c1cc(Cl)cc(Cl)c1)c1ccccc1
IC50 [1]: 544 nM

C/C=C/[C@@H](CC(=O)O)NC(=O)[C@@H]1CCCN1S(=O)(=O)c1cc(Cl)cc(Cl)c1
IC50 [1]: 13 nM

CC(C)(C)Oc1ccc([C@@H](CC(=O)O)NC(=O)[C@@H]2CCCN2S(=O)(=O)c2cc(Cl)cc(Cl)c2)cc1
IC50 [1]: 0.53 nM

O=C(O)C[C@@H](NC(=O)[C@@H]1CCN1S(=O)(=O)c1cc(Cl)cc(Cl)c1)c1ccccc1
IC50 [4]: 2.4 nM | clearance [2]: 27 mL/min/kg

COc1ccc([C@@H](CC(=O)O)NC(=O)[C@@H]2CCN2S(=O)(=O)c2cc(Cl)cc(Cl)c2)cn1
IC50 [1]: 3 nM | clearance [2]: 55 mL/min/kg

O=C(O)C[C@@H](NC(=O)[C@@H]1CCN1S(=O)(=O)c1cc(Cl)cc(Cl)c1)c1ccc(OCC(F)(F)F)cc1
bioavailability [3]: 38% | IC50 [1]: 1.4 nM | clearance [2]: 43 mL/min/kg

CC(C)[C@@H](CC(=O)O)NC(=O)[C@@H]1CCCN1S(=O)(=O)c1cc(Cl)cc(Cl)c1
IC50 [1]: 8.9 nM

O=C(O)C[C@@H](NC(=O)[C@@H]1CCN1S(=O)(=O)c1cc(Cl)cc(Cl)c1)c1ccc(OC2CCCC2)cc1
IC50 [1]: 0.5 nM | clearance [2]: 165 mL/min/kg

COc1ccc([C@@H](CC(=O)O)NC(=O)[C@@H]2CCN2S(=O)(=O)c2cc(Cl)cc(Cl)c2)cc1 (stereo in doubt; 6g)
IC50 [1]: 0.39 nM | clearance [5]: 39 mL/min/kg

COc1ccc([C@@H](CC(=O)O)NC(=O)[C@@H]2CCN2S(=O)(=O)c2cc(Cl)cc(Cl)c2)cc1 (stereo in doubt; 7g)
IC50 [1]: 0.49 nM | clearance [5]: 17 mL/min/kg
